The values below come from patent EP0617893B1, “Molluscicides” (SHELL INTE[…] […] B.V., priority 1993, dated 1994).

Test [1] deals with D. reticulatum. Kind of test: Contact test: glass residue test. In kind it is in vivo. As to conditions: Deroceras reticulatum, read-out: % affected D. reticulatum. As for the experimental part: The contact action of Compounds Nos. 1, 3 and 4 was assessed in this Example, using a glass residue test.
The residual toxicity of compounds on glass was investigated by pipetting aliquots of an acetone/Triton X-100 test solution over the base of a 7 cm diameter glass petri-dish to achieve a concentration of 600 ppm. Four adult slugs (D. reticulatum) were introduced into each dish and slug mortality recorded over a 5 day period. Moistened sugar bran mix was provided as food 24 hours after exposure.

Test [2] concerns snails of the genus Cepaea. Kind of test: Bait test against snails. The settings on record: bait containing 2%, 4% and 6% active ingredient. The format is in vivo. The protocol:
(§1) The action of Compound No. 1 was assessed against a wide range of slug species, and against snails of the genus Cepaea, with bait containing 2%, 4% and 6% active ingredient. The action of a 4% Draza (trade name for a sluggicide sold by Bayer AG and containing the carbamate molluscicide methiocarb) bait was also assessed.

In test [3] the test system is slugs. Kind of test: Systemic activity: lettuce root dip, cut leaves fed to slugs. The format is in vivo. As to conditions: root dip 400 ppm. The protocol: The action via systemic application of the Compound Nos. 1, 3 and 4 was assessed in this Example.
Test solutions of the compounds were prepared by dissolving technical samples in 1 ml of acetone and making up to 50 ml with tap water. The roots of young 6 cm high lettuce plants were then washed clean with water and immersed in the test solution for a minimum of two days. For each bioassay individual leaves were cut from a lettuce plant and placed on a filter paper in a 9cm diameter petri-dish. 1 ml of water was pipetted onto each filter paper in order to keep the leaves reasonably moist during the assay. Two medium-sized slugs were introduced into each dish and the amount of leaf eaten and % control of slugs recorded over a two day period. The amount of compound applied as root dips was in the range of from 400 to 1000 ppm over a number of tests.

The test system of test [4] is Deroceras reticulatum. Kind of test: Oral toxicity bait test (pellets in petri-dish), percentage control. As to conditions: 72 h; for mortality at 4 % strength: read-out: % control; for mortality at 2 % strength: 2 % active material in bait. In kind it is in vivo. The protocol: The molluscicidal activity of compounds used in the method of the invention was tested using, as a test mollusc, specimens of the adult grey field slug Deroceras reticulatum.
The oral toxicity of the compounds was assessed by presenting slugs with individually prepared experimental baits containing either 4% or 2% active material. These were compared with commercial baits containing 4% methiocarb (Draza) […] 6% metaldehyde (Slugit).
2 test pellets were placed onto a 5 cm filter-paper in the centre of a 9 cm plastic petri-dish. Two adults specimens of the slug Deroceras reticulatum were introduced into each dish and the pellets moistened with a few drops of water to make them attractive to eat. A minimum of the two replicates was used for each compound. Blank baits moistened with an equivalent volume of water were used as controls.
The dishes were then stored in a large glass tank maintained at 12 to 16°C and >95% relative humidity. Assessments of the number of slugs affected were made at intervals up to 3 days after treatment. Slugs were considered to be affected or controlled by the bait if they were incapable of normal body movements and could not right themselves within 2 minutes.
The molluscicidal activity of two compounds specified in European Patent Specification No. 437 784 A1, was tested against slugs, Deroceras reticulatum, using the test method given in Example 1 and bait containing 4% active material in each case. • Comparative A is the compound of Example 2 of EP-A-437 784 • Comparative B is the compound of Example 3 of EP-A-437 784.

Test [5] deals with Milax budapestensis. Kind of test: Bait test against a range of slug species. In kind it is in vivo. As for the experimental part: as §1
(§2) The slug species utilised in the test were Milax budapestensis , a large slug which is a major pest of potatoes Deroceras reticulatum , grey field slug - a major field crop pest Arion hortensis , garden slug.

Test [6] concerns Deroceras reticulatum. Kind of test: Bait test against a range of slug species. The format is in vivo. As for the experimental part:
as §1, §2

Test [7] deals with Arion hortensis. Kind of test: Bait test against a range of slug species. The format is in vivo. As for the experimental part: as §1, §2
The conditions of test [8]: statement of DE-A-4111389; cited from earlier work.
[9] abbreviates: 4 % active material in bait, assessments up to 3 days after treatment.
The mark [10] stands for this setting: bait containing 2%, 4% and 6% active ingredient.
Where [11] appears, read: assessments up to 3 days after treatment.

Read-outs that look alike come from different tables or passages of the source.

In the case of `O=[N+]([O-])C=C1NCCN1Cc1cc(Cl)no1` [Compound No. 1], the mortality at 600 ppm in test [1] (24 hours) came out at 100%; in test [1] (48 hours), 75%; in test [1] (120 hours), 100%. Further, the control of snails entry in test [2] is on record as “controlled”. For the same molecule, the systemic activity result in test [3] is “Activity was observed”. In addition, in test [4] (setting [9]), the mortality at 4 % strength was determined as 100%. Besides, the “effectiveness compared with 4% Draza bait” value in test [5] (4% bait), in test [6] (4% bait) and in test [7] (4% bait) was “more effective than the 4% Draza bait” throughout. Besides, the control of slugs result in test [5] (setting [10]), in test [6] (setting [10]) and in test [7] (setting [10]) was “controlled” throughout.

`O=[N+]([O-])N=C1NCCN1Cc1ccc(Cl)nc1` [Compound No. 13, Imidacloprid]: the mortality at 4 % strength in test [4] (setting [9]) is 30%. Moreover, in test [8], the molluscicidal effectiveness result is recorded as “only a relatively poorly developed molluscicidal effectiveness”. The molecule `O=[N+]([O-])N=C1NCCN1Cc1cc(Cl)no1` [compound 2] came in with a mortality at 2 % strength in test [4] (setting [11]) of 50%. On to `Cc1cc(CN2CCNC2=C[N+](=O)[O-])on1` [compound 3], for which the mortality at 600 ppm in test [1] (24 hours) turned out to be 75%; in test [1] (48 hours) it was 100%; in test [1] (120 hours), 100%. Moreover, in test [3], the systemic activity result is reported as “Activity was observed”. The molecule further displayed a mortality at 2 % strength in test [4] (setting [11]) of 100%.

In the case of `O=[N+]([O-])C=C1NCCN1Cc1cc(C(F)(F)F)no1` [compound 4], the mortality at 600 ppm in test [1] (24 hours) worked out at 25%; in test [1] (48 hours), 0%; in test [1] (120 hours) it was 25%. In test [4] (setting [11]), this molecule showed a mortality at 2 % strength of 100%. `O=[N+]([O-])C=C1NCCN1Cc1cc(Br)no1` [compound 5] had a mortality at 2 % strength in test [4] (setting [11]) of 50%.

`O=[N+]([O-])N=C1NCCN1Cc1cc(Br)no1` [compound 6] came in with a mortality at 2 % strength in test [4] (setting [11]) of 25%. On the same count and under the same terms, with `Cc1cc(CN2CCSC2=C[N+](=O)[O-])on1` [compound 7] the figure was 100%. `O=[N+]([O-])C=C1SCCN1Cc1cc(Cl)no1` [compound 8] registered a mortality at 2 % strength in test [4] (setting [11]) of 25%. `O=[N+]([O-])C(=C1NCCN1Cc1cc(Cl)no1)[N+](=O)[O-]` [compound 9] yielded a mortality at 2 % strength in test [4] (setting [11]) of 50%. Take `O=[N+]([O-])C(CSc1ccc(Cl)cc1)=C1NCCN1Cc1cc(Br)no1` [compound 10]: the mortality at 2 % strength in test [4] (setting [11]) worked out at 25%. On to `Cc1cc(CN2CCNC2=N[N+](=O)[O-])on1` [compound 11], for which the mortality at 2 % strength in test [4] (setting [11]) worked out at 100%.

`O=[N+]([O-])C=C1NCCN1Cc1ccc(Cl)nc1` [compound 12]: the mortality at 4 % strength in test [4] (setting [9]) turned out to be 20%.

For `O=[N+]([O-])C=C1NCCN1Cc1cnc(Cl)c(Cl)c1` [compound 14], the mortality at 4 % strength in test [4] (setting [9]) amounted to 20%. `O=[N+]([O-])N=C1NCCN1Cc1cnc(Cl)c(Cl)c1` [compound 15] registered a mortality at 2 % strength in test [4] (setting [11]) of 25%. For `O=[N+]([O-])C=C1SCCN1Cc1cnc(Cl)c(Cl)c1` [compound 16], in test [4] (setting [11]), the mortality at 2 % strength was 50%.

In test [4] (setting [11]), `O=[N+]([O-])C(CSCc1ccccc1)=C1NCCN1c1ccc(Cl)nc1` [compound 17] gave a mortality at 2 % strength of 25%. Turning to `O=[N+]([O-])C=C1NCCN1Cc1ccc(F)c(F)c1F` [compound 18], the mortality at 2 % strength in test [4] (setting [11]) worked out at 25%. In test [4] (setting [11]), `O=[N+]([O-])C=C1NCCN1Cc1cccc2ccccc12` [compound 20] gave a mortality at 2 % strength of 25%. In turn, `Cc1ccc(CN2CCNC2=C[N+](=O)[O-])cc1[N+](=O)[O-]` [compound 21] yielded a mortality at 2 % strength in test [4] (setting [11]) of 25%. `O=[N+]([O-])C=C1NCCN1Cc1ccc(C(F)(F)F)cc1` [compound 22] had a mortality at 2 % strength in test [4] (setting [11]) of 50%. With `C=C(C)CN1CCCNC1=C[N+](=O)[O-]` [compound 23], the mortality at 2 % strength in test [4] (setting [11]) worked out at 25%. In test [4] (setting [11]), `Cc1cc(CN2CCCNC2=C[N+](=O)[O-])on1` [compound 24] yielded a mortality at 2 % strength of 25%.

On to `CNC(=O)Oc1cc(C)c(SC)c(C)c1` [methiocarb, reference compound], for which the mortality at 4 % strength in test [4] amounted to 100%.
